# Experimental data from patent publication US11285142B2, “Compositions and methods for identifying and treating dystonia disorders” (DUKE UNIVERSITY, priority 2015, dated 2022).
# Tests used:
# [1] = system: delta-E Torsin1a localization in Flp-In T-REx 293 cells expressing EGFP-delta-E Torsin1a; test: delta-E Torsin1a mis-localization assay (high-content imaging, % cells with EGFP puncta); type: cell-based, human
# Experimental: To limit variation in expression levels associated with random integration or transient expression, single copies of either WT or delta-E human TOR1A cDNAs with N-terminal EGFP fusions were inserted at the FRT site in Flp-In™ T-Rex™ 293 cells (Thermo Fisher Scientific #R780-07) via flippase recombinase-mediated cassette exchange according to the manufacturer's recommended protocols.
# The cells were maintained at 37° C./5% CO2. All experiments were performed on cells with fewer than 5 passages.
# Torsin1a expression was also controlled by tetracycline induction to avoid selective pressure modifying the cellular phenotypes. […] The mutant phenotype was measured as the percentage of cells with one or more EGFP puncta using automated high-content imaging analysis (see infra).
# The image analysis algorithm was developed using the Cellomics ArrayScan V CompartmentAnalysisV2 protocol. Hoechst's nuclear staining (Ch1: excitation 350 nm; emission 461 nm) was used for focusing and for cell identification by nuclear size, shape, and intensity. […] Detected cells were gated according to nuclear area, length-to-width ratio, and perimeter-to-area ratio. For the purpose of analysis, cell bodies were defined by a radius of 10 μm from the outer edge of the defined nucleus. Overlapping cells were automatically segmented according to the Cellomics ArrayScanV CompartmentAnalysisV2 object segmentation feature. EGFP fluorescence (Ch2: excitation 488 nm; emission 509 nm) was used for puncta detection. […] Torsin1a puncta were identified using the spot detection feature of the Compartmental AnalysisV2 protocol. The percentage of cells containing one or more puncta was used as the primary metric in this assay.
# (§1) In order to test this model directly, the delta-E Torsin1a cell line was treated with compounds targeting the eIF2-alpha signaling pathway (FIG. 2). […] The following day, serial drug dilutions were prepared at 2× final concentration in assay media containing 10 μg/mL tetracycline and 30 μL of the drug/tetracycline mixture was added to the appropriate wells, while control wells received 30 μL of assay media alone or assay media+10 μg/mL tetracycline (final tetracycline concentration for all wells except negative controls: 5 μg/mL). Cells were then incubated at 37° C./5% CO^2 for 48 hours and fixed, permeabilized, Hoechst stained, and imaged as described above. The range of the Torsin1a localization effect was normalized to the percentage of cells with puncta in vehicle-treated delta-E cell line as the maximum and that in WT cell line as the minimum (FIG. 2, panels c-h). Cell count and EGFP-Torsin1a expression were normalized to their respective values in the vehicle-treated delta-E cell line as the maximum. All dose response data are the average of 4 independent experiments per dose. Untreated control data used for normalization are the average of 24 independent experiments.
# CreP = test: Western blot of CreP in EGFP-delta-E Torsin1a assay cell line; type: cell-based, human; conditions: EGFP-ΔE Torsin1a cells, increasing concentration
# Experimental: (§2) Cells were harvested in RIPA buffer [150 mM NaCl/50 mM NaH2PO4/2 mM EDTA/l % Triton X-100/0.5% SDS/0.5% deoxycholic acid/50 mM NaF/10 mM Na4P2O7/1 mM Na3VO4/1× phosphatase inhibitor cocktail (Sigma #P5726)/1× cOmplete Mini EDTA-free protease inhibitor cocktail (Roche #04693159001)]. Total protein concentrations were assessed by BCA assay (Thermo Fisher Scientific #23225). Proteins were resolved on 4-15% TGX gels (Bio-Rad #5671085), transferred to nitrocelulose membrane, blocked in TBS-T+5% non-fat dry milk, and probed as indicated. (Primary antibodies employed in the examples of the disclosure are presented in Table 4.) ATF4 expression was normalized to […] expression. N=3 independent control cells lines and 4 independent DYT1 cell lines, 3 replicates each.
# (§3) Western blot analyses were conducted to determine the effect of Lopinavir on ATF4, CreP, pEIF2-alpha, and β-actin abundance in EGFP-ΔE Torsin1a expression assay cell lines. […] This down regulation of CreP is in keeping with the HIV protease inhibitor mediated CreP regulation. (See De Gassart et al. PNAS 2015.)
# luciferase secretion = test: C.Luc. Secretion Assay (luciferase secretion, secretory deficits); type: cell-based
# Experimental: We tested each shRNA for its ability to rescue a previously described defect in luciferase secretion. Chen, P. et al. (2010) Hum. Mol. Genet. 19, 3502-15; Cao, S. et al. (2010) Dis. Model. Mech. 3, 386-96; Barrows, N. J., et al., (2010)J. Biomol. Screen. 15, 735-47.) DYT1 patient data were obtained from 4 independent patient-derived lines and WT data (black bar) from 3 normal healthy control lines. Each line was tested in 5 independent experiments that included 4 technical replicates each (with the exception of SCD data from 3 independent experiments).
# (Cao, S. et al. (2010) Dis. Model. Mech. 3, 386-96.) Subsequent testing of additional HIV protease inhibitors supported the activity of this class of compounds and generated favorable structure-activity relationship (SAR) data from which to design improved compounds (Tables 5 and 6). The results with a subset of compounds were also observed in a Luciferase secretion assay (Tables 5 and 6).
# ATF4 = test: Western blot of ATF4 in EGFP-delta-E Torsin1a assay cell line; type: cell-based, human; conditions: EGFP-ΔE Torsin1a cells, dose dependent
# Experimental: as §2, §3
# EIF2-alpha = test: Western blot of phosphorylated eIF2-alpha in EGFP-delta-E Torsin1a assay cell line; type: cell-based, human; conditions: EGFP-ΔE Torsin1a cells, dose dependent
# Experimental: as §2, §3
# [2] = Cytotoxicity (cell count, cellular morphology) in the Torsin1a assay cell line; type: cell-based, human; conditions: human
# Experimental: as §1
# (§4) Efficacy is calculated as the magnitude of the pathology correction relative to the mutant Torsin1a pathology. For example an efficacy=−100% would be equivalent to the WT TorsinA phenotype, and 0% would be equivalent to the Mutant TorsinA phenotype. CCv2 refers to the dose response Curve Class annotation, and AC refers to Active Concentration.
# [3] = system: Flp-In T-REx 293 cells expressing delta-E Torsin1a; test: as above; type: cell-based, human
# Experimental: as §1, §4
smiles,measurement,setting,value
"Cc1cccc(C)c1OCC(=O)N[C@@H](Cc1ccccc1)[C@@H](O)C[C@H](Cc1ccccc1)NC(=O)[C@H](C(C)C)N1CCCNC1=O [Lopinavir, lopinavir]",EC50,"[1]; Homo sapiens, Flp-In-T-REx-293, Table 5, read-out: ΔE TorsinA Mislocalization Assay Localization EC50",4.69 µM
same,Emax,"[1]; Homo sapiens, Flp-In-T-REx-293, Table 5, read-out: ΔE TorsinA Mislocalization Assay Localization Max Efficacy",70%
same,AC50,"[1]; Homo sapiens, Flp-In-T-REx-293, Table 6, AC = Active Concentration, read-out: % pathology AC50",4.69 µM
same,% pathology Max Resp,"[1]; Table 6, normalized scale, WT-TorsinA line 0%, DYT1 mutant line 100% pathology",−89.03%
same,% pathology Efficacy,"[1]; Table 6, normalized scale, −100% = WT TorsinA phenotype, 0% = Mutant TorsinA phenotype",−69.97%
same,effect on delta-E Torsin1a localization (in words),"[1]; delta-E cell line, dose response",corrected TorsinA localization in a dose-dependent fashion
same,CreP abundance (steady state levels),CreP,down-regulation of steady state levels
same,CreP abundance (steady state levels),CreP; listed as lopinavir,decreases CReP abundance
same,EC50,luciferase secretion; Table 5,0.98 µM
same,Emax,"luciferase secretion; Table 5, read-out: C.Luc. Secretion Assay Secretion Max Efficacy",177%
same,correction of secretory deficits (in words),luciferase secretion; orthogonal assays,corrected secretory deficits
same,ATF4 abundance,ATF4,increases phosphorylation of EIF2-alpha and ATF4 abundance
same,phosphorylation of EIF2-alpha,EIF2-alpha,increases phosphorylation of EIF2-alpha
same,EC50 at 48 h,"[2]; Flp-In T-REx 293 cells inducibly expressing delta-E Torsin1a, Table 5, read-out: ΔE TorsinA Mislocalization Assay Cytotoxicity EC50",37.2 µM
same,AC50,"[2]; Table 6, read-out: Cytotox AC50",37.2 µM
same,Cytotox CC-v2 (dose response Curve Class),[3]; Table 6,−3
same,Cytotox Efficacy,[3]; Table 6,−69.87
same,Cytotox Max Resp,[3]; Table 6,−55.19
same,"toxicity (cell count, cellular morphology; in words)",[3]; at effective concentrations,no cellular toxicity observed at effective doses
